By LD50 is commonly meant the dose at which mortality reaches 50%.

One series is described as follows: rat acute oral toxicity. Particulars: in vivo.
The compound `Clc1ccccc1` displayed an LD50 of 1110 mg/kg.
In the case of `CCCCCCCCCc1ccc(OCCOCCO)cc1`, the LD50 came out at 1310 mg/kg.
Same read-out and setting: the same measure for `CCN(C(=O)N(CC)c1ccccc1)c1ccccc1`: 781 mg/kg.
Still for that read-out and setting: the same measure for `O=C(Cl)c1ccc(Cl)cc1`: 3150 mg/kg.
Compound `ClC1=C(Cl)C(Cl)(C2(Cl)C(Cl)=C(Cl)C(Cl)=C2Cl)C(Cl)=C1Cl` registered an LD50 of 1200 mg/kg.
In turn, `CCOC(=O)C(Cl)C(C)=O` (stereo unspecified) registered an LD50 of 233 mg/kg.
For `NS(=O)(=O)Cc1noc2ccccc12`, the LD50 amounted to 1990 mg/kg.
Same read-out and setting: as for `CCCCC(CC)COC(=O)CC(C(=O)OCC(CC)CCCC)S(=O)(=O)O` (stereo unspecified), the figure is 1900 mg/kg; as for `CCCCN(CC)C(=O)SCCC`, 921 mg/kg.
With `CN(C)CCC=C1c2ccccc2CCc2ccccc21`, the LD50 was found to be 280 mg/kg.
`CN(C)CCCNCCCN` had an LD50 of 1540 mg/kg.
On to `OCC#CCO`, for which the LD50 stood at 104 mg/kg.
On the same count and under the same terms, the same measure for `CCOP(=S)(OCC)Oc1ccc(S(C)=O)cc1` (stereo unspecified): 1.8 mg/kg.
In turn, `O=[N+]([O-])c1ccc(Cl)c(Cl)c1` came in with an LD50 of 625 mg/kg.
The compound `Cc1ccccc1NC(=N)Nc1ccccc1C` returned a median lethal dose (LD50) of 70.7 mg/kg.
The same measure, in the same setting: as for `C=CCOC(=O)C(=C)C`, the figure is 70 mg/kg.
In turn, `Cc1cccc(N)c1` gave an LD50 of 450 mg/kg.
Take `Nc1ccc(O)c([N+](=O)[O-])c1`: the LD50 was 1470 mg/kg.
`CCCCN(C)C` registered an LD50 of 184 mg/kg.
`Cc1ccccc1OP(=O)(Oc1ccccc1C)Oc1ccccc1C` came in with an LD50 of 1160 mg/kg.
Regarding `CCNc1ccccc1`, the LD50 is 334 mg/kg.
For the compound `CCOP(=S)(OCC)Oc1cc(C)nc(C(C)C)n1`, the LD50 came out at 92 mg/kg.
On the same count and under the same terms, as for `O=C1c2ccccc2C(=O)N1SC(Cl)(Cl)Cl`, the figure is 2640 mg/kg.
On the same count and under the same terms, the same measure for `CC=Cc1ccc2c(c1)OCO2`: 1300 mg/kg; for `C=COCCCl`: 210 mg/kg.
As to `CCCCN`, the LD50 was determined as 366 mg/kg.
In turn, `CCC(C)(C#N)/N=N/C(C)(C#N)CC` (stereo unspecified) gave an LD50 of 333 mg/kg.
`CC(C)=O` gave an LD50 of 5800 mg/kg.
For `CCCCOCCOCCOC(OCCOCCOCCCC)c1ccc2c(c1)OCO2`, the LD50 was 2940 mg/kg.
The compound `CCCCCC(=O)O` yielded an LD50 of 3000 mg/kg.
On the same count and under the same terms, as for `O=S(=O)(O)c1ccc(Nc2nc(Nc3ccc(/C=C/c4ccc(Nc5nc(Nc6ccc(S(=O)(=O)O)cc6)nc(N(CCO)CCO)n5)cc4S(=O)(=O)O)c(S(=O)(=O)O)c3)nc(N(CCO)CCO)n2)cc1`, the figure is 5300 mg/kg.

A further series in a line: GHS categories as the set defines them, by LD50: 1 up to 5, 2 up to 50, 3 up to 300, 4 up to 2000, 5 above 2000 mg/kg. Particulars: rat; in vivo; po.
`c1ccc2[nH]nnc2c1` gave a GHS category of 4.
Consider `Nc1nc(N)nc(N)n1`, for which the GHS category is 5.
In turn, `CC1OC(=O)C(C)OC1=O` (stereo unspecified) showed a GHS category of 5.
Consider `N[C@@H](CCC(=O)O)C(=O)O`, for which the GHS category is recorded as 5.
As to `NC(N)=O`, the GHS category was 5.
Compound `Nc1ccc(S(=O)(=O)O)cc1` came in with a GHS category of 5.
`CCCCCCCC/C=C\CCCCCCCC(=O)O` had a GHS category of 5.
The compound `CCC[C@@H]1C[C@@H](C(=O)N[C@@H]([C@H]2O[C@H](SC)[C@H](O)[C@@H](O)[C@H]2O)[C@@H](C)O)N(C)C1` had a GHS category of 5.
`CC(=O)O` had a GHS category of 5.
`Oc1ccccc1` yielded a GHS category of 5.
On to `O=C1CCCCCN1`, for which the GHS category is reported as 4.
Still for that read-out and setting: as for `OCC(O)CO`, the figure is 5.
Consider `O=S(=O)(O)c1cc(Nc2nc(Nc3ccccc3)nc(N(CCO)CCO)n2)ccc1/C=C/c1ccc(Nc2nc(Nc3ccccc3)nc(N(CCO)CCO)n2)cc1S(=O)(=O)O`, for which the GHS category is on record as 5.
The same measure, in the same setting: the same measure for `NCCNCCNCCNCCN`: 4; for `Cc1ccc(S(=O)(=O)O)cc1`: 5.
Consider `CCN(CC)CC`, for which the GHS category is 5.
`C=CN1CCCC1=O` registered a GHS category of 5.

The next series is described as follows: Nontoxic (NT; LD50>2,000mg/kg vs. all others). Particulars: rat; in vivo; po. The source says:
[…]The data set underlying the modeling effort for this project was initially compiled by NICEATM and U.S. EPA’s CCTE. Briefly, LD50 data were collected from rat acute oral systemic toxicity tests, including limit tests, ranges/confidence intervals, and discrete LD50 values. The full data set included 21,200 LD50 entries for 15,688 substances. […] Data were reviewed to ensure that LD50 values with obvious errors in the extracted data such as unit conversion errors (e.g., comma and decimal separator misplacements) were either fixed or removed. After this review, 16,209 LD50 values remained. Many of the chemicals represented had multiple LD50 entries, requiring that a single representative value per Chemical Abstracts Service Registry Number (CASRN) identifier be defined to facilitate modeling efforts. Based on ATWG feedback and to define the representative LD50 as a protective value while accounting for the distribution across multiple LD50s, the median of the lowest quartile was computed using only discrete LD50 values (omitting limit test data and range and confidence interval data). A detailed summary of the data compilation is available online on the NICEATM webpage dedicated to the collaborative modeling project (NTP 2020).
[…][…] For categorical designations, limit test and range/confidence interval LD50 data were integrated wherever possible. As such, the number of chemicals with end point values/calls varies across the modeling end points (Table 3) based on whether chemicals had representative LD50 values and/or other data. If a chemical had both, the representative value was used to determine categorical calls rather than limit test data. Some data were useable only for certain end points and categories depending on the thresholds. For example, ranges that spanned multiple hazard categories were considered only for the binary (very toxic/nontoxic) end points and omitted from rendering a determination for hazard category assignment.
[…]The final data set comprising 11,992 chemicals was split into training and evaluation sets […], respectively. This process was performed semirandomly by ordering chemicals based on the five end points (categorical and continuous LD50 values) and partitioning every fourth record into the evaluation set accordingly. This approach was taken to ensure an equivalent distribution of the LD50 values and the different hazard categories between the training and the evaluation sets without supervised sampling of the chemicals based on structures (Figure 1A). The sources of the chemical structures were also kept equivalent between the two sets, with chemical structures obtained from DSSTox, being the highest quality, representing over 75% of each set (Figure 1B).
In the case of `COc1c(C)cnc(CCl)c1C`, the nontoxic result is on record as “FALSE (not_nontoxic)”.
The same measure, in the same setting: as for `O=CC1=C(Cl)C(=CO)CCC1`, the entry is “FALSE (not_nontoxic)”; as for `CN(C)CCOCCOC(=O)NCC1(C)CC(NC(=O)OCCOCCN(C)C)CC(C)(C)C1` (stereo unspecified), “FALSE (not_nontoxic)”.
On the same count and under the same terms, the same measure for `CN(C)C=CC(=O)c1cccnc1`: “FALSE (not_nontoxic)”; for `CO[Si](C)(CCCCl)OC`: “FALSE (not_nontoxic)”.
In the case of `CCOC(=O)C(C#N)=CN`, the nontoxic entry is on record as “FALSE (not_nontoxic)”.
In the case of `CCCCCCCC[N+](C)(CCCCCCCC)CCCCCCCC`, the nontoxic result is “FALSE (not_nontoxic)”.
Take `CN(C(=O)CCl)c1ccc([N+](=O)[O-])cc1`: the nontoxic result was “FALSE (not_nontoxic)”.
The same measure, in the same setting: the same measure for `CC1(C(=O)Cl)CCCCC1`: “FALSE (not_nontoxic)”; for `C[Si](Cl)(Cl)CCCCl`: “FALSE (not_nontoxic)”; for `CC(CC(C)(C)C)C[Si](Cl)(Cl)Cl` (stereo unspecified): “FALSE (not_nontoxic)”.
Turning to `C=CCOC(=O)C(C)(C)O`, the nontoxic entry is reported as “FALSE (not_nontoxic)”.
As to `CCCCCCCCCCCCCCCC[Si](Cl)(Cl)Cl`, the nontoxic result was “FALSE (not_nontoxic)”.
